Measurements taken from US20060079512A1, “Dibenzodiazepinone analogues, processes for their production and their use as pharmaceuticals” (Ecopia BioSciences, Inc., priority 2003, published 2006).
Where two headings read alike, the source gives them in different places.

What was measured:
[1] = tested on: HT-29 (colorectal carcinoma); assay: In vitro cytotoxic activity (GI50), method (b), propidium iodide; format: cell-based; conditions: Homo sapiens, 96 hrs
Procedure: (§1) Row H was filled wih medium only (150 μL, negative control-medium).

[2] = tested on: MDA-MB-231 (mammary gland adenocarcinoma); assay: as above; format: cell-based; conditions: Homo sapiens, 96 hrs
Procedure: as §1

[3] = tested on: PC-3 (prostate adenocarcinoma); assay: as above; format: cell-based; conditions: 96 hrs
Procedure: as §1

[4] = tested on: SF268 (CNS); assay: as above; format: cell-based; conditions: Homo sapiens, SF-268, 96 hrs
Procedure: as §1

[5] = tested on: HT-29, SF-268, PC-3, MDA-MB-231; assay: Average GI50 over the four cell lines, method (b); format: cell-based; conditions: for GI50: values > 30 not considered
Procedure: as §1

[6] = Pharmacokinetic profile, plasma concentrations by LC/MS/MS; format: in vivo, female Crl: CD1 mice; conditions: 30 mg/kg; for half-life: plasma; for Cmax / AUC: mice plasma; for Cmax: read-out: observed Cmax
Procedure: (§2) Compounds 1 and 2 were separately dissolved in ethanol (5%), Polysorbate 80 (15%), PEG 400 (5%) and dextrose (5%) at a final concentration of 6 mg/ml (for all parenteral administration routes). For oral administration, Compound 1 was solubilized in Cremophor® EU Ethanol (50%:50%) at a final concentration of 6 mg/ml. Prior to dosing, animals (female Crl: CD1 mice; 6 weeks of age, 22-24 g) were weighed, randomly selected and assigned to the different treatment groups. Compound 1 was administered by the intravenous (iv), subcutaneous (sc), intraperitoneal (ip), or oral (po) route to the assigned animals. Compound 2 was administered by the intravenous (iv), or intraperitoneal (ip) route to the assigned animals. The dosing volume of Compounds 1 and 2 was 5 mL per kg body weight. Animals were anesthetized with 5% isoflurane prior to bleeding. Blood was collected into microtainer tubes containing the anticoagulant K2EDTA by cardiac puncture from each of 4 animals per bleeding timepoint (2 min, 5 min, 15 min, 30 min, 1 h, 2 h, 4 h and 8 h). Following collection, the samples were centrifuged and the plasma obtained from each sample was recovered and stored frozen (at approximately −80° C.) pending analysis. At the 5 min and 30 min time points, the following organs were harvested from each animal: brain, lungs, skeletal muscle, fat tissue, kidneys, spleen, thymus and liver. Tissues were frozen (at approximately −80° C.) pending analysis. Samples were analysed by LC/MS/MS.
Plasma values of Compounds 1 and 2 falling below the limit of quantitation (LOQ) were set to zero. […] The following pharmacokinetic parameters were calculated: area under the plasma concentration versus time curve from time zero to the last measurable concentration time point (AUC0-t), area under the plasma concentration versus time curve extrapolated to infinity (AUCinf), maximum observed plasma concentration (Cmax), time of maximum plasma concentration (tmax), apparent first-order terminal elimination rate constant (kel), apparent first-order terminal elimination half-life will be calculated as 0.693/kel (t1/2). The systemic clearance (CL) of Compound 1 after intravenous administration was calculated using Dose/AUCinf. Pharmacokinetic parameters were calculated using Kinetica™ 4.1.1 (InnaPhase Corporation, Philadelphia, Pa.).

[7] = Tissue concentrations 30 min after administration; format: in vivo, female Crl: CD1 mice; conditions: 30 mg/kg
Procedure: as §2, with “At the 5 min and 30 min time points, the following organs were harvested from each animal: brain, lungs, skeletal muscle, fat tissue, kidneys, spleen, thymus and liver. Tissues were frozen (at approximately −80° C.) pending analysis.” left out, “LC/MS/MS. […]” for “LC/MS/MS.”

[8] = tested on: 36 cancer cell lines; assay: Anticancer activity profiling against 36 cell lines (IC50); format: cell-based
Procedure: Compounds were dissolved at 10 mM in DMSO. Dilution in vehicle to concentrations of 30, 10, 3, 1 and 0.3 μM were prepared immediately before assays. Depending on the cell line's growth characteristics, 4000-10000 cells were plated in two 96-wells pates (day 0) and incubated for 16 hours. The following day, propidium iodide was added to one of the two plates and fluorescence measured (Tz). Test compounds were added to the second plate, as well as vehicle control, and cells further incubated for 96 hours. Each compound was tested at each concentration and in triplicates. The equivalent cell number was determined after adding propidium iodide by measuring the signal by fluorescence (C for control).

[9] = female, Crl: CD1, mouse, iv, read-out: AUC

CC(C)=CCC/C(C)=C/CC/C(C)=C/CN1C(=O)c2cccc(O)c2Nc2c(O)cc(O)cc21 [Compound 1, 10-farnesyl-4,6,8-trihydroxy-5,10-dihydrodibenzo[b,e][1,4]diazepin-11-one]
GI50 [1]: 9.33 µM | GI50 [2]: 3.18 µM | GI50 [3]: 3.76 µM | GI50 [4]: 1.55 µM | GI50 [5]: 4.45 µM | half-life ([6]; female, Crl: CD1, mouse, iv, I.V., read-out: half life t1/2 α): 0.0767 h | half-life ([6]; female, Crl: CD1, mouse, iv, I.V., read-out: half life t1/2 β (converted)): 2.56 h | Cmax ([6]; female, Crl: CD1, mouse, ip): 2.25 µg/mL | AUC [6, 9]: 40.4 µM·h | Cmax ([6]; female, Crl: CD1, mouse, iv): 130 µg/mL | AUC ([6]; ip): 9.5 ˜M·h | drug levels after oral administration ([6]; oral): moderate but sustained drug levels | orally bioavailable level ([6]; oral): 5-8% | tissue distribution ([7]; iv and ip dosing): well distributed | tissue levels ([7]; sc dosing, compared with ip): significantly lower

CC(C)=CCC/C(C)=C/CC/C(C)=C/CN1C(=O)c2cccc(O)c2N(C)c2c(O)cc(O)cc21 [Compound 2, 10-farnesyl-4,6,8-trihydroxy-5-methyl-5,10-dihydro-dibenzo[b,e][1,4]diazepin-11-one]
GI50 [1]: 0.65 µM | GI50 [2]: 0.24 µM | GI50 [3]: 0.45 µM | GI50 [4]: 0.12 µM | anticancer activity compared with Compound 1 ([5]; four cell lines): better anticancer activity than Compound 1 | GI50 [5]: 0.36 µM | levels of IC50 values ([8]; 36 tumor types): low micromolar to nanomolar | IC50 ([8]; Bladder, cell line 1218L (Xenograft), urothelial adeno ca, read-out: IC50): 166 nM | IC50 ([8]; Bladder, cell line T24 (ATCC), transitional cell ca, read-out: IC50): 127 nM | IC50 ([8]; CNS, cell line SF268 (NCI), read-out: IC50): 10 nM | IC50 ([8]; Gastric, cell line 251L (Xenograft), adeno ca, pd, read-out: IC50): 105 nM | IC50 ([8]; Head & Neck, cell line 536L (Xenograft), hypopharynx ca, read-out: IC50): 181 nM | IC50 ([8]; Homo sapiens, 22Rv1, Prostate, cell line 22RV1 (ATCC), adeno ca, md, read-out: IC50): 142 nM | IC50 ([8]; Homo sapiens, CNS cell, CNS, cell line 498NL (Xenograft), glioblastoma, read-out: IC50): 176 nM | IC50 ([8]; Homo sapiens, DU-145, Prostate, cell line DU145 (NCI), adeno ca, md, read-out: IC50): 158 nM | IC50 ([8]; Homo sapiens, HCT-116, Colon, cell line HCT116 (NCI), adeno ca, pd, read-out: IC50): 156 nM | IC50 ([8]; Homo sapiens, HT-29, Colon, cell line HT29 (NCI), adeno ca, pd, read-out: IC50): 223 nM | IC50 ([8]; Homo sapiens, LNCaP, Prostate, cell line LNCAP (DSMZ), adeno ca, md, read-out: IC50): 485 nM | IC50 ([8]; Homo sapiens, MCF7, Mammary, cell line MCF7 (NCI), mamma ca, read-out: IC50): 276 nM | IC50 ([8]; Homo sapiens, NCI-H460, Lung, cell line H460 (NCI), large cell ca, read-out: IC50): 366 nM | IC50 ([8]; Homo sapiens, OVCAR-3, Ovarian, cell line OVCAR3 (NCI), adeno ca, md, read-out: IC50): 139 nM | IC50 ([8]; Homo sapiens, PANC-1, Pancreas, cell line PANC1 (ATCC), read-out: IC50): 125 nM | IC50 ([8]; Homo sapiens, PC-3M, Prostate, cell line PC3M (NCI), adeno ca, pd, read-out: IC50): 114 nM | IC50 ([8]; Lung, cell line 289L (Xenograft), adeno ca, read-out: IC50): 1550 nM | IC50 ([8]; Lung, cell line 526L (Xenograft), adeno ca, read-out: IC50): 104 nM | IC50 ([8]; Lung, cell line 529L (Xenograft), large cell ca, read-out: IC50): 127 nM | IC50 ([8]; Lung, cell line 629L (Xenograft), adeno ca, read-out: IC50): 164 nM | IC50 ([8]; Lung, cell line 1121L (Xenograft), large cell ca, read-out: IC50): 125 nM | IC50 ([8]; Mammary, cell line 401NL (Xenograft), pap adeno ca, wd, read-out: IC50): 194 nM | IC50 ([8]; Melanoma, cell line 276L (Xenograft), mm, amelanotic, read-out: IC50): 1950 nM | IC50 ([8]; Melanoma, cell line 394NL (Xenograft), mm, amelanotic, pd, read-out: IC50): 20 nM | IC50 ([8]; Melanoma, cell line 462NL (Xenograft), mm, amelanotic, read-out: IC50): 978 nM | IC50 ([8]; Melanoma, cell line 514L (Xenograft), mm, melanotic, read-out: IC50): 110 nM | IC50 ([8]; Melanoma, cell line 520L (Xenograft), mm, melanotic, read-out: IC50): 85 nM | IC50 ([8]; Ovarian, cell line 899L (Xenograft), pap serous ca, md, read-out: IC50): 238 nM | IC50 ([8]; Ovarian, cell line 1619L (Xenograft), adeno ca, md, read-out: IC50): 579 nM | IC50 ([8]; Pancreas, cell line 1657L (Xenograft), adeno ca, md, read-out: IC50): 1780 nM | IC50 ([8]; Pleuramesot., cell line 1752L (Xenograft), pleuromesothelioma, read-out: IC50): 1500 nM | IC50 ([8]; Renal, cell line 393NL (Xenograft), hypernephroma, wd, read-out: IC50): 527 nM | IC50 ([8]; Renal, cell line 486L (Xenograft), hypernephroma, pd, read-out: IC50): 1140 nM | IC50 ([8]; Renal, cell line 944L (Xenograft), hypernephroma, read-out: IC50): 230 nM | IC50 ([8]; Renal, cell line 1781L (Xenograft), renal ca, read-out: IC50): 172 nM | IC50 ([8]; Uterus, cell line 1138L (Xenograft), carcinosarcoma, wd, read-out: IC50): 139 nM | IC50 ([8]; mean of all 36 cell lines, read-out: IC50, Mean of all cell lines): 407 nM | half-life ([6]; female, Crl: CD1, mouse, ip, IP administration, read-out: half life (t1/2)): > 40 h | half-life ([6]; female, Crl: CD1, mouse, iv, IV administration, read-out: half life (t1/2)): > 40 h | AUC ([6]; female, Crl: CD1, mouse, ip, read-out: AUC): 58.8 µM·h | Cmax ([6]; female, Crl: CD1, mouse, ip): 5.8 µg/mL | AUC [6, 9]: 92.1 µM·h | Cmax ([6]; female, Crl: CD1, mouse, iv): 105 µg/mL
